Earlier results on eight molecules are cited in patent publication US20210319872A1, “DRUG AND DEVICE COMBINATION PRODUCTS WITH IMPROVED SAFETY AND EFFICACY PROFILES” (priority 2016, published 2021).

Where two headings read alike, the source gives them in different places.

As to `O=C1CCC(N2C(=O)c3ccccc3C2=O)C(=O)N1` (stereo not shown) [Thalomid], where the note is “erythema nodosum leprosum”, the Nausea was 4.2%; the Rash entry was “nodosum leprosum, 20.8%)”; the Tremor result was “Tremor (erythema nodosum leprosum, 4.2%; multiple myeloma,”. For the setting “in vivo”, the Ischemic heart disease is given as 11.1% and the Myocardial infarction result was “Myocardial infarction (1.3%)”. In addition, the “Serious side effect, Cardiovascular” value (listed without frequency) is “Cardiac dysrhythmia”. Moreover, where the note is “multiple myeloma”, the Asthenia is 21.9%; multiple myeloma, 24%), Confusional state (multiple; the “Atrial fibrillation, Grade 3/4” value was 5%; the Confusional state is reported as 28%; the Dizziness is on record as 19.2%; multiple myeloma, 23%), Somnolence (erythema nodosum. Further, for the setting “multiple myeloma”, the Dry skin result is “Dermatologic: Dry skin (multiple myeloma, 21%), Rash (erythema”; the Dyspnea result is recorded as “Respiratory: Dyspnea (multiple myeloma, 42%), Pneumonia”; the Fever was 24%; the Hypocalcemia entry is “Endocrine metabolic: Hypocalcemia (multiple myeloma, 72%),”. Also, under “multiple myeloma”, the Indigestion was 11%; the Leukopenia result was “multiple myeloma, 35%)”; the Muscle weakness entry is “Musculoskeletal: Muscle weakness (multiple myeloma, 40%)”; the Peripheral edema result is “multiple myeloma, 34%)”. Under “multiple myeloma”, the Pneumonia entry was “(multiple myeloma, 15%)”; the Somnolence was at least 3%; the Tremor is on record as 26%); the Weight loss entry was “(multiple myeloma, 23%)”.

With `CN1CC[C@]23c4c5ccc(O)c4O[C@H]2[C@@H](O)C=C[C@H]3[C@H]1C5` [morphine, reference compound], the “Drowsiness or Sedation” value (in vivo) is “severe sedation and drowsiness”.

As for `O=C1CN=C(c2ccccc2Cl)c2cc([N+](=O)[O-])ccc2N1` [Klonopin (clonazepam)], under “in vivo”, the Ataxia result is on record as “Neurologic: Ataxia (5% to 30%), Coordination problem (6%),”; the Coordination problem result is reported as “Neurologic: Ataxia (5% to 30%), Coordination problem (6%),”; the Depression entry was “Psychiatric: Depression (7%), Suicidal thoughts”; the Dizziness entry is given as “Dizziness (8%), Somnolence (37% to 50%)”. In addition, for the setting “in vivo”, the Fatigue entry was “Other: Fatigue (7%)”; the Problem behavior entry was “Psychiatric: Problem behavior (25%)”; the “Serious side effect, Psychiatric” value is “Psychiatric: Depression (7%), Suicidal thoughts”; the “Serious side effect, Respiratory” value is on record as “Respiratory: Respiratory depression”. Under “in vivo”, the Somnolence result is recorded as “Dizziness (8%), Somnolence (37% to 50%)” and the Upper respiratory infection entry is listed as “Respiratory: Upper respiratory infection (8%)”.

Consider `COc1ccccc1OCCNCC(O)COc1cccc2[nH]c3ccccc3c12` (stereo not shown) [carvedilol, Common brand names - Coreg*], for which, where the note is “in vivo”, the Abnormal weight gain entry is on record as “Endocrine metabolic: Abnormal weight gain (10% to 12%),”; the Atrioventricular block result was “Cardiovascular: Atrioventricular block (greater than 1% to 3%)”; the Bradyarrhythmia result is recorded as “Cardiovascular: Bradyarrhythmia (3% to 10%), Hypotension (1.8%”; the Diarrhea result was “Gastrointestinal: Diarrhea (2% to 12%)”. For the same molecule, under “in vivo”, the Dizziness entry was “Neurologic: Dizziness (6% to 33%)”, the Erectile dysfunction entry is recorded as “Reproductive: Erectile dysfunction (13.5%)”, the Fatigue result was “Other: Fatigue (24%)” and the Hyperglycemia result is on record as “Hyperglycemia (5% to 12%)”. The Hypotension result (in vivo) is recorded as “Cardiovascular: Bradyarrhythmia (3% to 10%), Hypotension (1.8%”.

For `O=C1CCc2ccc(OCCCCN3CCN(c4cccc(Cl)c4Cl)CC3)cc2N1` [Aripiprazole (Abilify)], for the setting “in vivo”, the Akathisia result was “Neurologic: Akathisia (2% to 25%), Dizziness (4% to 10%),”; the Angioedema entry was “Other: Angioedema (0.1% to less than 1%), Increased body”; the Anxiety result is listed as “Psychiatric: Anxiety (4% to 17%), Restlessness (2% to 12%)”; the Cardiorespiratory arrest entry is listed as “Cardiovascular: Cardiorespiratory arrest (0.1% to 1%),”. For the setting “in vivo”, the Cardiorespiratory failure result is given as “Cardiorespiratory failure (0.1% to 1%), Myocardial infarction”; the Constipation entry is on record as “Gastrointestinal: Constipation (5% to 11%), Nausea (8% to 15%),”; the Diabetic ketoacidosis result is reported as “Endocrine metabolic: Diabetic ketoacidosis (Less than 0.1%)”; the Dizziness entry is listed as “Neurologic: Akathisia (2% to 25%), Dizziness (4% to 10%),”. For the same molecule, where the note is “in vivo”, the Extrapyramidal sign result is “Extrapyramidal sign (2% to 27.3%), Headache (10% to 27%),”; the Fatigue entry is on record as “Other: Fatigue (2% to 17%)”; the Headache entry is reported as “Extrapyramidal sign (2% to 27.3%), Headache (10% to 27%),”; the Leukopenia entry is on record as “Hematologic: Agranulocytosis, Leukopenia (Less than 1%),”. Where the note is “in vivo”, the Myocardial infarction result is on record as “(0.1% to 1%), Prolonged QT interval (0.1% to 1%)”; the Nausea entry is reported as “Gastrointestinal: Constipation (5% to 11%), Nausea (8% to 15%),”; the Neutropenia entry is recorded as “Neutropenia (Less than 1%)”; the Pancreatitis result was “Gastrointestinal: Pancreatitis (Less than 0.1%)”. For the same molecule, for the setting “in vivo”, the “Prolonged QT interval” value is “(0.1% to 1%), Prolonged QT interval (0.1% to 1%)”; the Restlessness entry is reported as “Psychiatric: Anxiety (4% to 17%), Restlessness (2% to 12%)”; the Rhabdomyolysis result is reported as “Musculoskeletal: Rhabdomyolysis (Less than 0.1%)”; the Sedated result is reported as “Insomnia (8% to 18%), Sedated (3% to 21%), Somnolence (6% to”. Moreover, under “in vivo”, the Seizure entry is “Neurologic: Cerebrovascular accident, Seizure (Up to 0.3%),”; the Tremor was 26.3%), Tremor (2% to 11.8%); the Vomiting result is on record as “Vomiting (3% to 11%)”.

Regarding `Nc1ccncc1` [Ampyra], under “in vivo”, the Abdominal pain entry was “Gastrointestinal: Abdominal pain (7%), Nausea (7% to 13%),”; the Abnormal gait result is listed as “Musculoskeletal: Abnormal gait (5%), Backache (5%)”; the Anxiety result is recorded as “Psychiatric: Anxiety (5%)”; the Asthenia result was “Neurologic: Asthenia (7%), Dizziness (7%), Headache (7%),”. For the same molecule, for the setting “in vivo”, the Backache result is on record as “Musculoskeletal: Abnormal gait (5%), Backache (5%)”; the Dizziness result is reported as “Neurologic: Asthenia (7%), Dizziness (7%), Headache (7%),”; the Headache result is “Neurologic: Asthenia (7%), Dizziness (7%), Headache (7%),”; the Insomnia entry is on record as “Insomnia (9%)”. Also, for the setting “in vivo”, the Nausea result is listed as “Gastrointestinal: Abdominal pain (7%), Nausea (7% to 13%),”; the “Serious side effect, Immunologic” value is reported as “Immunologic: Anaphylaxis, Hypersensitivity reaction”; the “Serious side effect, Neurologic” value is on record as “Neurologic: Seizure”; the “Urinary tract infectious disease” value is given as “Renal: Urinary tract infectious disease (12%)”. In addition, under “in vivo”, the Vomiting entry is “Vomiting (13%)”.

With `CCCCNc1cc(C(=O)O)cc(S(N)(=O)=O)c1Oc1ccccc1` [Bumetanide (Bumex)], where the note is “in vivo”, the “Azotemia (incidence)” value is “Renal: Azotemia (10.6%)”; the “Cramp (incidence)” value is recorded as “Musculoskeletal: Cramp (1.1%)”; the “Dizziness (incidence)” value was “Neurologic: Dizziness (1.1%), Headache (0.6%)”; the “Encephalopathy (incidence)” value is reported as “Neurologic: Encephalopathy (0.6%)”. For the same molecule, where the note is “in vivo”, the “Headache (incidence)” value was “Neurologic: Dizziness (1.1%), Headache (0.6%)”; the “Hyperuricemia (incidence)” value was “Endocrine metabolic: Hyperuricemia (18.4%), Hypochloremia”; the “Hypochloremia (incidence)” value is “(14.9%), Hypokalemia (14.7%)”; the “Hypokalemia (incidence)” value is “(14.9%), Hypokalemia (14.7%)”. Also, under “in vivo”, the “Hypotension (incidence)” value is recorded as “Cardiovascular: Hypotension (0.8%)”, the “Nausea (incidence)” value is recorded as “Gastrointestinal: Nausea (0.6%)”, the “Serious side effect listed (incidence not given)” value is listed as “Dermatologic: Stevens-Johnson syndrome” and the “Thrombocytopenia (incidence)” value is reported as “Hematologic: Thrombocytopenia (0.2%)”.

Take `CC(NC(C)(C)C)C(=O)c1cccc(Cl)c1` (stereo not shown) [Bupropion (Wellbutrin)]: for the setting “in vivo”, the Abdominal pain entry is given as “Gastrointestinal: Abdominal pain (2% to 9%), Constipation (5% to”; the Agitation entry is “Psychiatric: Agitation (2% to 9%)”; the Confusion entry is listed as “Neurologic: Confusion (major depressive disorder, 8%), Dizziness”; the Dizziness entry is “(6% to 11%), Headache (25% to 34%), Insomnia (11% to 20%)”. Under “in vivo”, the Headache result is on record as “(6% to 11%), Headache (25% to 34%), Insomnia (11% to 20%)”; the Hostile behavior result is “Hallucinations, Hostile behavior (major depressive disorder, 6%),”; the Insomnia result was “(6% to 11%), Headache (25% to 34%), Insomnia (11% to 20%)”; the Nasopharyngitis result is “Respiratory: Nasopharyngitis (seasonal affective disorder, 13%),”. Under “in vivo”, the Nausea is recorded as 10%), Nausea (13% to 18%), Xerostomia (17% to 26%); the Pharyngitis result was “Pharyngitis (major depressive disorder, 3% to 11%), Upper”; the Seizure entry is recorded as “Neurologic: Seizure (major depressive disorder, 0.1% to 0.4%)”; the Tachycardia result is given as “Cardiovascular: Tachycardia (major depressive disorder, 11%)”. Moreover, for the setting “in vivo”, the Upper respiratory infection entry was “respiratory infection (seasonal affective disorder, 9%)”; the Weight gain entry is “Endocrine metabolic: Weight gain (2% to 9%), Weight loss (major”; the Weight loss entry is listed as “depressive disorder, 14% to 19%)”; the Xerostomia was 10%), Nausea (13% to 18%), Xerostomia (17% to 26%).
